Assay results as given in PubChem BioAssay AID1794811.

Target: High affinity choline transporter 1 (Homo sapiens) (UniProt Q9GZV3)
Assay: PubChem AID 1794811
Conditions: HEK-293 JumpIN-SLC5A7, FLIPR membrane potential dye

Chain of High affinity choline transporter 1 (Homo sapiens) (Q9GZV3 whole entry, looked up): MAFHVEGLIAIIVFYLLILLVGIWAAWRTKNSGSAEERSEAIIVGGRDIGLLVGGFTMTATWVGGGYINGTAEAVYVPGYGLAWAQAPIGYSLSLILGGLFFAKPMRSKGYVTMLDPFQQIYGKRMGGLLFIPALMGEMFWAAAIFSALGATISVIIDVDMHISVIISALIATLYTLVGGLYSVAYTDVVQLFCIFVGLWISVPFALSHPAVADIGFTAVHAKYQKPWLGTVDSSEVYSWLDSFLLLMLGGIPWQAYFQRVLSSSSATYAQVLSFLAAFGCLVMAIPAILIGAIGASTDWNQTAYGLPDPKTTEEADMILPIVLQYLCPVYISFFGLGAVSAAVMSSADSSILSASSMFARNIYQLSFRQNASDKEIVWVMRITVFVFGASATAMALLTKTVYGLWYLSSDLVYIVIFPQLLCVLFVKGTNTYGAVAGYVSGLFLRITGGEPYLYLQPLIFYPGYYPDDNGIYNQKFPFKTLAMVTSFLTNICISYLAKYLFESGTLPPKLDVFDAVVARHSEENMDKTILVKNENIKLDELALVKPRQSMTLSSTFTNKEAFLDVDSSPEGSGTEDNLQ

- EC50: 17 µM
Compound: C[N+](C)(C)CCO
